In the supplement of paper PMC6045584:
± gives the standard deviation of the averaged measurements.

Assays:
[1] = compound: CC(=O)NCC(=O)N1[C@@H]2CC[C@H]1c1ccc(Nc3ncc(C(F)(F)F)c(NC4CCC4)n3)cc12; experiment: surviving fraction relative to DMSO-only wells; higher = less growth inhibition; details: exposure time: 5 days
Procedure, shortened: (§1)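 Lines were retained only if, across three screens, replicate Pearson r was >0.7 and median Z' was >0.3. Viability was measured as CellTiter-Glo luminescence and reported as surviving fraction relative to the median of DMSO-only wells. Readings followed 10 minutes at room temperature, after log-phase tumour cells seeded at 250–500 per well in 384-well plates had been exposed, from 24 hours after seeding, continuously for five days to inhibitors at 0.5, 1, 5, 10, 50, 100, 500 and 1000 nM.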

PACLITAXEL [2] = compound: T1, CC(=O)O[C@H]1C(=O)[C@@]2(C)[C@H]([C@H](OC(=O)c3ccccc3)[C@]3(O)C[C@H](OC(=O)[C@H](O)[C@@H](NC(=O)c4ccccc4)c4ccccc4)C(C)=C1C3(C)C)[C@]1(OC(C)=O)CO[C@@H]1C[C@@H]2O [PACLITAXEL]; experiment: as above; details: exposure time: 5 days
Procedure, shortened: as §1

[3] = compound: CC(=O)c1c(C)c2cnc(Nc3ccc(N4CCNCC4)cn3)nc2n(C2CCCC2)c1=O; experiment: as above; details: exposure time: 5 days
Procedure, shortened: as §1

CAMPTOTHECIN [4] = compound: T2, CC[C@@]1(O)C(=O)OCc2c1cc1n(c2=O)Cc2cc3ccccc3nc2-1 [CAMPTOTHECIN]; experiment: as above; details: exposure time: 5 days
Procedure, shortened: as §1

YM155 [5] = compound: T3, COCC[n+]1c2c(n(Cc3cnccn3)c1C)C(=O)c1ccccc1C2=O [YM155]; experiment: as above; details: exposure time: 5 days
Procedure, shortened: as §1

GEFITINIB [6] = compound: T4, COc1cc2ncnc(Nc3ccc(F)c(Cl)c3)c2cc1OCCCN1CCOCC1 [GEFITINIB]; experiment: as above; details: exposure time: 5 days
Procedure, shortened: as §1

OSI-906 [7] = compound: T5, C[C@]1(O)C[C@@H](c2nc(-c3ccc4ccc(-c5ccccc5)nc4c3)c3c(N)nccn32)C1 [OSI-906]; experiment: as above; details: exposure time: 5 days
Procedure, shortened: as §1

CELECOXIB [8] = compound: T6, Cc1ccc(-c2cc(C(F)(F)F)nn2-c2ccc(S(N)(=O)=O)cc2)cc1 [CELECOXIB]; experiment: as above; details: exposure time: 5 days
Procedure, shortened: as §1

CARBOPLATIN [9] = compound: T7, O=C(O)C1(C(=O)O)CCC1.[NH2-].[NH2-].[Pt+2] [CARBOPLATIN]; experiment: as above; details: exposure time: 5 days
Procedure, shortened: as §1

[10] = compound: CC(=O)NCC(=O)N1[C@@H]2CC[C@H]1c1ccc(Nc3ncc(C(F)(F)F)c(NC4CCC4)n3)cc12; experiment: area under dose-response curve of surviving fraction (unscaled, Aref=0) (surviving fraction x log10(nM)); higher = more resistant; details: exposure time: 5 days; dose range 0.5-1000 nM
Procedure, shortened: (§2)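 Tumour cell lines in 384-well plates were exposed to eight inhibitor concentrations, from 0.5 to 1000 nM, for five days, and viability was read by CellTiter-Glo luminescence in three screens per line. Signals were normalised to DMSO-only wells, and 3-parameter logistic regression in the drc R package fitted dose-response survival curves to the surviving fractions. Area under the curve is given as the unscaled activity area. That area is taken over log10 dose with Aref = 0.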

PACLITAXEL [11] = compound: T1, PACLITAXEL; experiment: as above; details: exposure time: 5 days; dose range 0.5-1000 nM
Procedure, shortened: as §2

[12] = compound: CC(=O)c1c(C)c2cnc(Nc3ccc(N4CCNCC4)cn3)nc2n(C2CCCC2)c1=O; experiment: as above; details: exposure time: 5 days; dose range 0.5-1000 nM
Procedure, shortened: as §2

CAMPTOTHECIN [13] = compound: T2, CAMPTOTHECIN; experiment: as above; details: exposure time: 5 days; dose range 0.5-1000 nM
Procedure, shortened: as §2

YM155 [14] = compound: T3, YM155; experiment: as above; details: exposure time: 5 days; dose range 0.5-1000 nM
Procedure, shortened: as §2

GEFITINIB [15] = compound: T4, GEFITINIB; experiment: as above; details: exposure time: 5 days; dose range 0.5-1000 nM
Procedure, shortened: as §2

OSI-906 [16] = compound: T5, OSI-906; experiment: as above; details: exposure time: 5 days; dose range 0.5-1000 nM
Procedure, shortened: as §2

CELECOXIB [17] = compound: T6, CELECOXIB; experiment: as above; details: exposure time: 5 days; dose range 0.5-1000 nM
Procedure, shortened: as §2

CARBOPLATIN [18] = compound: T7, CARBOPLATIN; experiment: as above; details: exposure time: 5 days; dose range 0.5-1000 nM
Procedure, shortened: as §2

Q: HCC38 BREAST was tested. Which surviving fraction ([1]; 0.5 nM) did it give?
A: 1.19 ± 0.12

Q: What about the surviving fraction ([1]; 1 nM) of the same test system?
A: 1.19 ± 0.3

Q: What about the surviving fraction ([1]; 5 nM) of the same test system?
A: 0.952 ± 0.096

Q: What about the surviving fraction ([1]; 10 nM) of the same test system?
A: 1.26 ± 0.31

Q: What about the surviving fraction ([1]; 50 nM) of the same test system?
A: 0.747 ± 0.077

Q: What about the surviving fraction ([1]; 100 nM) of the same test system?
A: 0.668 ± 0.051

Q: And the surviving fraction ([1]; 500 nM)?
A: 0.594 ± 0.15

Q: What about the surviving fraction ([1]; 1000 nM) of the same test system?
A: 0.455 ± 0.062

Q: And the surviving fraction (PACLITAXEL [2]; 0.5 nM)?
A: 0.894 ± 0.17

Q: And the surviving fraction (PACLITAXEL [2]; 1 nM)?
A: 0.492 ± 0.062

Q: And the surviving fraction (PACLITAXEL [2]; 5 nM)?
A: 0.138 ± 0.03

Q: And the surviving fraction (PACLITAXEL [2]; 10 nM)?
A: 0.11 ± 0.0059

Q: What about the surviving fraction (PACLITAXEL [2]; 50 nM) of the same test system?
A: 0.112 ± 0.053

Q: What about the surviving fraction (PACLITAXEL [2]; 100 nM) of the same test system?
A: 0.094 ± 0.026

Q: And the surviving fraction (PACLITAXEL [2]; 500 nM)?
A: 0.108 ± 0.0074

Q: And the surviving fraction (PACLITAXEL [2]; 1000 nM)?
A: 0.0823 ± 0.0076

Q: What about the surviving fraction ([3]; 0.5 nM) of the same test system?
A: 1.11 ± 0.12

Q: What about the surviving fraction ([3]; 1 nM) of the same test system?
A: 1.22 ± 0.16

Q: And the surviving fraction ([3]; 5 nM)?
A: 1.23 ± 0.036

Q: What about the surviving fraction ([3]; 10 nM) of the same test system?
A: 1.19 ± 0.14

Q: And the surviving fraction ([3]; 50 nM)?
A: 1.21 ± 0.15

Q: What about the surviving fraction ([3]; 100 nM) of the same test system?
A: 1.09 ± 0.096

Q: And the surviving fraction ([3]; 500 nM)?
A: 1.28 ± 0.12

Q: What about the surviving fraction ([3]; 1000 nM) of the same test system?
A: 1.24 ± 0.11

Q: And the surviving fraction (CAMPTOTHECIN [4]; 0.5 nM)?
A: 0.946 ± 0.16

Q: What about the surviving fraction (CAMPTOTHECIN [4]; 1 nM) of the same test system?
A: 0.926 ± 0.15

Q: What about the surviving fraction (CAMPTOTHECIN [4]; 5 nM) of the same test system?
A: 0.563 ± 0.16

Q: And the surviving fraction (CAMPTOTHECIN [4]; 10 nM)?
A: 0.351 ± 0.12

Q: What about the surviving fraction (CAMPTOTHECIN [4]; 50 nM) of the same test system?
A: 0.0953 ± 0.0049

Q: And the surviving fraction (CAMPTOTHECIN [4]; 100 nM)?
A: 0.0423 ± 0.009

Q: What about the surviving fraction (CAMPTOTHECIN [4]; 500 nM) of the same test system?
A: 0.038 ± 0.0072

Q: What about the surviving fraction (CAMPTOTHECIN [4]; 1000 nM) of the same test system?
A: 0.0387 ± 0.0025

Q: And the surviving fraction (YM155 [5]; 0.5 nM)?
A: 1.28 ± 0.18

Q: What about the surviving fraction (YM155 [5]; 1 nM) of the same test system?
A: 1.27 ± 0.12

Q: What about the surviving fraction (YM155 [5]; 5 nM) of the same test system?
A: 0.346 ± 0.013

Q: What about the surviving fraction (YM155 [5]; 10 nM) of the same test system?
A: 0.243 ± 0.015

Q: And the surviving fraction (YM155 [5]; 50 nM)?
A: 0.043 ± 0.0056

Q: What about the surviving fraction (YM155 [5]; 100 nM) of the same test system?
A: 0.031 ± 0.002

Q: What about the surviving fraction (YM155 [5]; 500 nM) of the same test system?
A: 0.0247 ± 0.0021

Q: What about the surviving fraction (YM155 [5]; 1000 nM) of the same test system?
A: 0.0297 ± 0.0011

Q: What about the surviving fraction (GEFITINIB [6]; 0.5 nM) of the same test system?
A: 1.05 ± 0.086

Q: What about the surviving fraction (GEFITINIB [6]; 1 nM) of the same test system?
A: 1.33 ± 0.089

Q: What about the surviving fraction (GEFITINIB [6]; 5 nM) of the same test system?
A: 1.25 ± 0.17

Q: What about the surviving fraction (GEFITINIB [6]; 10 nM) of the same test system?
A: 1.24 ± 0.1

Q: What about the surviving fraction (GEFITINIB [6]; 50 nM) of the same test system?
A: 1.23 ± 0.13

Q: What about the surviving fraction (GEFITINIB [6]; 100 nM) of the same test system?
A: 1.29 ± 0.03

Q: And the surviving fraction (GEFITINIB [6]; 500 nM)?
A: 1.1 ± 0.096

Q: And the surviving fraction (GEFITINIB [6]; 1000 nM)?
A: 1.18 ± 0.053

Q: What about the surviving fraction (OSI-906 [7]; 0.5 nM) of the same test system?
A: 0.958 ± 0.13

Q: What about the surviving fraction (OSI-906 [7]; 1 nM) of the same test system?
A: 0.883 ± 0.083

Q: And the surviving fraction (OSI-906 [7]; 5 nM)?
A: 1.06 ± 0.09

Q: What about the surviving fraction (OSI-906 [7]; 10 nM) of the same test system?
A: 0.902 ± 0.12

Q: What about the surviving fraction (OSI-906 [7]; 50 nM) of the same test system?
A: 1.1 ± 0.19

Q: And the surviving fraction (OSI-906 [7]; 100 nM)?
A: 1.12 ± 0.019

Q: And the surviving fraction (OSI-906 [7]; 500 nM)?
A: 1.16 ± 0.14

Q: And the surviving fraction (OSI-906 [7]; 1000 nM)?
A: 1.07 ± 0.24

Q: And the surviving fraction (CELECOXIB [8]; 0.5 nM)?
A: 1.17 ± 0.23

Q: What about the surviving fraction (CELECOXIB [8]; 1 nM) of the same test system?
A: 1.4 ± 0.23

Q: And the surviving fraction (CELECOXIB [8]; 5 nM)?
A: 1.33 ± 0.23

Q: And the surviving fraction (CELECOXIB [8]; 10 nM)?
A: 1.36 ± 0.25

Q: And the surviving fraction (CELECOXIB [8]; 50 nM)?
A: 1.25 ± 0.1

Q: And the surviving fraction (CELECOXIB [8]; 100 nM)?
A: 1.17 ± 0.0085

Q: And the surviving fraction (CELECOXIB [8]; 500 nM)?
A: 1.09 ± 0.095

Q: What about the surviving fraction (CELECOXIB [8]; 1000 nM) of the same test system?
A: 1.15 ± 0.12

Q: What about the surviving fraction (CARBOPLATIN [9]; 0.5 nM) of the same test system?
A: 1.07 ± 0.18

Q: And the surviving fraction (CARBOPLATIN [9]; 1 nM)?
A: 0.841 ± 0.19

Q: What about the surviving fraction (CARBOPLATIN [9]; 5 nM) of the same test system?
A: 1.34 ± 0.44

Q: And the surviving fraction (CARBOPLATIN [9]; 10 nM)?
A: 1.15 ± 0.15

Q: And the surviving fraction (CARBOPLATIN [9]; 50 nM)?
A: 0.944 ± 0.04

Q: And the surviving fraction (CARBOPLATIN [9]; 100 nM)?
A: 0.919 ± 0.13

Q: And the surviving fraction (CARBOPLATIN [9]; 500 nM)?
A: 0.962 ± 0.086

Q: And the surviving fraction (CARBOPLATIN [9]; 1000 nM)?
A: 1 ± 0.12

Q: And the “area under dose-response curve” value [10]?
A: 2.71

Q: And the “area under dose-response curve” value (PACLITAXEL [11])?
A: 0.609

Q: What about the “area under dose-response curve” value [12] of the same test system?
A: 3.95

Q: What about the “area under dose-response curve” value (CAMPTOTHECIN [13]) of the same test system?
A: 1.16

Q: What about the “area under dose-response curve” value (YM155 [14]) of the same test system?
A: 1.05

Q: And the “area under dose-response curve” value (GEFITINIB [15])?
A: 3.99

Q: What about the “area under dose-response curve” value (OSI-906 [16]) of the same test system?
A: 3.25

Q: And the “area under dose-response curve” value (CELECOXIB [17])?
A: 4.1

Q: And the “area under dose-response curve” value (CARBOPLATIN [18])?
A: 3.4
